Reference: publication PMC11178908, “Diabetes drugs activate neuroprotective pathways in models of neonatal hypoxic-ischemic encephalopathy” (EMBO Molecular Medicine, 2024)
Several values for one entry are separate records, joined by “and”; a condition that tells them apart may be missing. Equal entries are not always repeated. Entries after “also recorded” stand apart in the source; their conditions may differ.

Experiments:
GLP1-R = assay: cAMP content in the brain of naïve P10 mice (blood-brain barrier crossing); type: in vivo
Source text: Brains of P10 naive mice or treated at the different time points were collected (n = 4 per group). All samples were processed using AMP direct immunoassay kit as per manufacturer’s instructions (Abcam).

[1] = tested on: P10 CD1 mice with surgically induced HI; assay: Mortality after semaglutide in neonatal mice with HI; type: in vivo; conditions: semaglutide 0.5 µg/g (500 µg/kg), no glucose
Method: (§1) Thereafter, a dosing experiment was conducted to evaluate the optimal dose for semaglutide in the same neonatal HIE model (Fig. EV2F) and brain protection was measured using a macroscopic scoring system to assess the size of the infarct.
The body temperature was maintained using a heating mat. […] The pups were then immediately returned to the dam. […] 1% mortality was observed following this procedure. […] The study design is illustrated in Fig. EV1.

[2] = Blood glucose / hypoglycaemia; type: in vivo, P10 CD1 mice; conditions: for blood glucose: HI P10 mice
Method: as §1
Blood glucose levels (mmol/l) were measured using a blood glucose monitor (CodeFree, SD Biosensor) in naive controls and mice following one semaglutide dose administration (0.25 µg/g) with or without glucose supplementation, intraperitoneally or subcutaneously to determine the best route of administration. Blood samples were collected via cardiac puncture at 0.5 h, 2 h, 24 h, 7 days, and 14 days for glucose test. Brains of P10 naive mice or treated at the different time points were collected (n = 4 per group). All samples were processed using […] as per manufacturer’s instructions (Abcam).

pGSK3β-S9 = pGSK3β-S9 protein level in brain (western blot) after HI
Method: Tissues were homogenized (Ultra-Turrax TP, IKA Labortechnik, Wasserburg, Germany) on ice in 300 ml of RIPA lysis buffer (Thermo) per 100 mg of tissue with 1X protease inhibitor cocktail (Thermo) and incubated for 30 min. Lysates were centrifuged at 14,000 × g, 4 °C for 20 min and overall protein concentrations of the supernatant were determined by Pierce BCA Protein Assay (Life Technologies). […] Proteins were transferred to PDVF membrane at 400 mA for 1 h and membrane was blocked for 1 h at 4 °C with 5% BSA in TBS with 3% Tween-20. Membranes were subsequently incubated overnight at 4 °C with primary antibodies (Appendix Table S2) with 3% BSA in TBS with 3% Tween-20. […] Blots were developed with the ECL system (SuperSignal West Pico, Life Technologies) and imaged using a Genegnome imager (Syngene, Cambridge, UK).
All experiments involved litters of postnatal day 10 CD1 mice (P10) bred in-house. […] This was achieved using heating mats, heated incubators and prompt returning of pups to the dam. […] The left common carotid artery was permanently occluded with 8/0 polypropylene suture and the wound closed with tissue glue. The body temperature was maintained using a heating mat. The mice recovered in an incubator at 37 °C and were returned to the dam for 1 h. […] The pups were then immediately returned to the dam. […] All treatments were administered immediately after HI via intraperitoneal administration. […] Treated animal were culled at either 48 h post HI for ST studies or 60 days post HI for LT studies.

caspase 3 = assay: Caspase 3 activity in primary neurons exposed to OGD; type: cell-based, CD1 mice
Method: (§2) Cells were plated at a density of 2 × 10^6 cells/6 cm plate and propagated. At DIV 10–12, neurons were subjected to oxygen–glucose deprivation (OGD) in neurobasal-A medium lacking glucose and incubated in a hypoxia chamber (Billups-Rothenburg Inc., Del Mar, CA, USA) filled with an anoxic atmosphere of 5% CO2 balanced in nitrogen at 37 °C for 2 h. […] Culture medium was assayed after 24 h.
Culture medium was assayed after treatment at 24 h post-OGD. All samples were processed using Multiplex caspases 3, 8 and 9 activity assay kit as per manufacturer’s instructions (Abcam – Ab219915).

ATF-3 = ATF-3 expression (qPCR, immunofluorescence) in primary neurons exposed to OGD; type: cell-based, CD1 mice
Method: as §2
(§3) RNA from neuron cultures or brains was extracted and isolated using RNeasy Mini kit (Qiagen) and first-strand cDNA was generated using High-Capacity cDNA Reverse Transcription kit (Applied Biosystems). Quantitative RT-PCR was carried out using a StepOnePlus (Applied Biosystems) with the SsoAdvanced™ Universal SYBR Green PCR Core Reagents Supermix (Bio-Rad). Primers sequences were designed to detect GLP1-R, CREB, GSK3β, il-10, IL-4, IL-1β, ATF-3, Bcl-2, Bcl-xL (Appendix Table S1). Data from StepOne™ software v2.3 were calibrated to Gapdh, and the relative quantitation of gene expression was performed using the comparative CT method.
Neuronal cultures (n = 6 per group) were stained by simultaneous overnight incubation with ATF-3 and anti-NeuN antibodies (Appendix Table S2). Representative images were captured using a Zeiss LSM710 confocal microscope and Zen software (Carl Zeiss AG). […] All images were processed using Imaris v.9.1 (Bitplane AG).

HIF-1-α = HIF-1-α expression (qPCR) in primary neurons exposed to OGD; type: cell-based, CD1 mice; conditions: p < 0.0001 exendin-4, p < 0.0001 semaglutide
Method: as §2, §3

human GLP1-R = assay: GLP1-R activation, luciferase reporter in GLP1-R/pCRE-luciferase/CHO-K1 cells; type: cell-based; conditions: exendin-9 (500 nM) with 1 μM semaglutide or exendin-4
Method: For biological evaluation of GLP-1/Fc for human GLP1-R activation, GLP1-R/pCRE-Luciferase-co-expressed CHO cell lines were established using the lipofectamine method. […] Using a luciferase assay system (Promega – E1500), activity of the GLP1 receptor can be assessed following treatment with GLP1-R agonists for 24 h in 96-well plates.

CREB = CREB expression (qPCR) in primary neurons exposed to OGD; type: cell-based, CD1 mice; conditions: p = 0.0016 exendin-4, p = 0.0002 semaglutide
Method: as §2, §3

Row | Compound | blood-brain barrier crossing (GLP1-R; IP, naïve neonatal mice) | entry into the brain and GLP1-R activation, IP vs SC (GLP1-R; p < 0.0001 at 30 mins, p = 0.0024 at 2 h) | mortality / recovery after HI surgery [1] | blood glucose ([2]; 0.5 µg/g IP, 30 min, p = 0.0002) | blood glucose ([2]; 0.5 µg/g IP, 2 h, p = 0.0003) | blood glucose ([2]; 0.5 µg/g IP, 24 h, p = 0.0003) | blood glucose ([2]; 0.5 µg/g SC, 2 h, p = 0.0180) | blood glucose ([2]; 0.5 µg/g SC, 24 h, p = 0.0289) | hypoglycaemia with oral glucose supplementation ([2]; 2 mg/g oral glucose, semaglutide 0.5 µg/g) | fall in blood glucose ([2]; intraperitoneal, high dose in HI neonatal mice) | pGSK3β-S9 protein level (pGSK3β-S9; after HI, western blot, relative to β-actin, single animals, n = 4) | pGSK3β-S9 protein level vs HI saline (pGSK3β-S9; p = 0.0001 both) | Caspase 3 activity (caspase 3; 24 h post-OGD, single replicates, n = 5, listed as Ex-9) | effect of antagonist on anti-apoptotic effects of exendin-4 and semaglutide (caspase 3; Bcl-xL, Bcl-2, caspases 3, 8, 9) | ATF-3 average expression/GAPDH (ATF-3; OGD neurons, treatment 2 h after OGD, qPCR, single samples, n = 3, listed as Ex-9) | ATF-3 expression vs OGD (ATF-3; qPCR and immunofluorescence, p = 0.0378 exendin-4, p = 0.0226 semaglutide) | HIF-1-α expression vs OGD (HIF-1-α) | effect of antagonist on agonist-induced luciferase expression (human GLP1-R) | CREB expression vs OGD (CREB)
1 | CC[C@H](C)[C@H](NC(=O)[C@H](Cc1ccccc1)NC(=O)[C@H](CCC(=O)O)NC(=O)[C@H](CCCCNC(=O)COCCOCCNC(=O)COCCOCCNC(=O)CC[C@H](NC(=O)CCCCCCCCCCCCCCCCC(=O)O)C(=O)O)NC(=O)[C@H](C)NC(=O)[C@H](C)NC(=O)[C@H](CCC(N)=O)NC(=O)CNC(=O)[C@H](CCC(=O)O)NC(=O)[C@H](CC(C)C)NC(=O)[C@H](Cc1ccc(O)cc1)NC(=O)[C@H](CO)NC(=O)[C@H](CO)NC(=O)[C@@H](NC(=O)[C@H](CC(=O)O)NC(=O)[C@H](CO)NC(=O)[C@@H](NC(=O)[C@H](Cc1ccccc1)NC(=O)[C@@H](NC(=O)CNC(=O)[C@H](CCC(=O)O)NC(=O)C(C)(C)NC(=O)[C@@H](N)Cc1cnc[nH]1)[C@@H](C)O)[C@@H](C)O)C(C)C)C(=O)N[C@@H](C)C(=O)N[C@@H](Cc1c[nH]c2ccccc12)C(=O)N[C@@H](CC(C)C)C(=O)N[C@H](C(=O)N[C@@H](CCCNC(=N)N)C(=O)NCC(=O)N[C@@H](CCCNC(=N)N)C(=O)NCC(=O)O)C(C)C [semaglutide] | cross the blood-brain barrier | more rapid when the agonist was given IP compared with subcutaneously | increased mortality; also recorded: some mice did not recover from HI surgery | Statistically significant hypoglycaemia | Statistically significant hypoglycaemia | Statistically significant hypoglycaemia | Statistically significant hypoglycaemia | Statistically significant hypoglycaemia | completely compensated for by oral supplementation with 2 mg/g glucose | drop significantly within 30 min | 0.3664 and 0.5017 and 0.5395 and 0.3157 | modulated | – | – | – | – | – | – | –
2 | exendin 9-39 [exendin-9] | – | – | – | – | – | – | – | – | – | – | – | – | 1.4812 and 1.737 and 1.2406 and 1.699 and 1.511 | inhibited the anti-apoptotic effects | 21.697 and 22.687 and 26.651 | inhibited this effect | inhibited this improvement | inhibited | blocked this effect
